Assay results: PubChem BioAssay (NCI)
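Dose response: 5 concentrations. Exposure: 48 h. Format: 96-well plates. Endpoint: linear interpolation; highest concentration if not reached. GI50: concentration for 50% inhibition of growth. At the TGI there is no net growth.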

Experiments:
Test in all cases: NCI-60 cell line screen, 48 h; in the data active means GI50 below about 0.43 µM; inactive means the rest
NCI-H23 lung = system: NCI-H23 lung
EKVX NSCLC = system: EKVX NSCLC
SN12C renal = system: SN12C renal
SF-295 CNS = system: SF-295 CNS
HCT-15 colon = system: HCT-15 colon
SK-OV-3 ovarian = system: SK-OV-3 ovarian
CCRF-CEM leukemia = system: CCRF-CEM leukemia
SK-MEL-28 melanoma = system: SK-MEL-28 melanoma
A549 NSCLC = system: A549 NSCLC
T-47D breast = system: T-47D breast
HOP-62 NSCLC = system: HOP-62 NSCLC
IGROV1 ovarian = system: IGROV1 ovarian
BT-549 breast = system: BT-549 breast
K-562 leukemia = system: K-562 leukemia
NCI-H460 lung = system: NCI-H460 lung
OVCAR-5 ovarian = system: OVCAR-5 ovarian
SF-539 CNS = system: SF-539 CNS
OVCAR-8 ovarian = system: OVCAR-8 ovarian
U251 CNS = system: U251 CNS
M14 melanoma = system: M14 melanoma
KM12 colon = system: KM12 colon
DU-145 prostate = system: DU-145 prostate
NCI-H522 lung = system: NCI-H522 lung
786-0 renal = system: 786-0 renal
HOP-92 NSCLC = system: HOP-92 NSCLC
SNB-75 CNS = system: SNB-75 CNS
NCI/ADR-RES ovarian = system: NCI/ADR-RES ovarian
CAKI-1 renal = system: CAKI-1 renal
SW-620 colon = system: SW-620 colon
TK-10 renal = system: TK-10 renal
ACHN renal = system: ACHN renal
SR leukemia = system: SR leukemia
MDA-MB-231 breast = system: MDA-MB-231 breast
SF-268 CNS = system: SF-268 CNS
HS 578T breast = system: HS 578T breast
SNB-19 CNS = system: SNB-19 CNS
SK-MEL-2 melanoma = system: SK-MEL-2 melanoma
UACC-62 melanoma = system: UACC-62 melanoma
RPMI-8226 leukemia = system: RPMI-8226 leukemia
UACC-257 melanoma = system: UACC-257 melanoma
RXF 393 renal = system: RXF 393 renal
MALME-3M melanoma = system: MALME-3M melanoma

N#Cc1cnc2ccc(-c3cnc4[nH]ncc4c3)cc2c1N1CCc2cc(F)c(Cl)cc21
0.673 µM: TGI (HOP-92 NSCLC)
0.716 µM: TGI (BT-549 breast)
> 100 µM: TGI (NCI-H23 lung) | TGI (EKVX NSCLC) | TGI (SN12C renal) | TGI (HCT-15 colon) | TGI (CCRF-CEM leukemia) | TGI (SK-MEL-28 melanoma) | TGI (A549 NSCLC) | TGI (T-47D breast) | TGI (K-562 leukemia) | TGI (NCI-H460 lung) | TGI (OVCAR-5 ovarian) | TGI (OVCAR-8 ovarian) | TGI (U251 CNS) | TGI (M14 melanoma) | TGI (KM12 colon) | TGI (DU-145 prostate) | TGI (NCI/ADR-RES ovarian) | TGI (CAKI-1 renal) | TGI (SW-620 colon) | TGI (ACHN renal) | TGI (SR leukemia) | TGI (RPMI-8226 leukemia) | TGI (UACC-257 melanoma)
0.544 µM: TGI (IGROV1 ovarian)
0.648 µM: TGI (MALME-3M melanoma)
5.12 µM: TGI (786-0 renal)
0.564 µM: TGI (SF-539 CNS)
0.518 µM: TGI (SK-MEL-2 melanoma)
6.7 µM: TGI (MDA-MB-231 breast)
0.428 µM: TGI (SNB-75 CNS)
active: GI50 (NCI-H23 lung) 0.406 µM | GI50 (EKVX NSCLC) 0.309 µM | GI50 (SN12C renal) 0.303 µM | GI50 (SF-295 CNS) 0.206 µM | GI50 (HCT-15 colon) 0.293 µM | GI50 (SK-OV-3 ovarian) 0.214 µM | GI50 (CCRF-CEM leukemia) 0.355 µM | GI50 (SK-MEL-28 melanoma) 0.33 µM | GI50 (A549 NSCLC) 0.292 µM | GI50 (T-47D breast) 0.214 µM | GI50 (HOP-62 NSCLC) 0.255 µM | GI50 (IGROV1 ovarian) 0.177 µM | GI50 (BT-549 breast) 0.232 µM | GI50 (K-562 leukemia) 0.36 µM | GI50 (NCI-H460 lung) 0.327 µM | GI50 (OVCAR-5 ovarian) 0.371 µM | GI50 (SF-539 CNS) 0.23 µM | GI50 (OVCAR-8 ovarian) 0.348 µM | GI50 (U251 CNS) 0.373 µM | GI50 (M14 melanoma) 0.322 µM | GI50 (KM12 colon) 0.4 µM | GI50 (DU-145 prostate) 0.372 µM | GI50 (NCI-H522 lung) 0.254 µM | GI50 (786-0 renal) 0.37 µM | GI50 (HOP-92 NSCLC) 0.204 µM | GI50 (SNB-75 CNS) 0.145 µM | GI50 (NCI/ADR-RES ovarian) 0.334 µM | GI50 (CAKI-1 renal) 0.25 µM | GI50 (SW-620 colon) 0.389 µM | GI50 (TK-10 renal) 0.275 µM | GI50 (ACHN renal) 0.36 µM | GI50 (SR leukemia) 0.262 µM | GI50 (MDA-MB-231 breast) 0.302 µM | GI50 (SF-268 CNS) 0.296 µM | GI50 (HS 578T breast) 0.151 µM | GI50 (SNB-19 CNS) 0.399 µM | GI50 (SK-MEL-2 melanoma) 0.222 µM | GI50 (UACC-62 melanoma) 0.25 µM | GI50 (RPMI-8226 leukemia) 0.402 µM | GI50 (UACC-257 melanoma) 0.312 µM | GI50 (RXF 393 renal) 0.171 µM | GI50 (MALME-3M melanoma) 0.232 µM
0.591 µM: TGI (SK-OV-3 ovarian)
1.1 µM: TGI (HOP-62 NSCLC)
> 36.2 µM: TGI (TK-10 renal)
0.406 µM: TGI (HS 578T breast)
0.725 µM: TGI (NCI-H522 lung)
0.599 µM: TGI (SF-295 CNS) | TGI (RXF 393 renal)
> 35.4 µM: TGI (SNB-19 CNS)
